Measured values reported in PMC12030062, “From In Vitro Cytotoxicity to In Vivo Zebrafish Assays: A Study on 3,3-Dichloro β-, γ- and δ-Lactams and Their Biological Activity Profiles” (Pharmaceuticals, 2025).
≈ marks a conversion by molar mass, not a printed value.

Key:
[1] = system: murine Swiss albino fibroblast (3T3) cell line; assay: Cell viability, MTT assay, 3T3; type: cell-based; conditions: 24 h incubation, MTT endpoint
Procedure: (§1) Two different endpoints, 3-(4,5-dimethyl-2-thiazolyl)-2,5-diphenyltetrazolium bromide (MTT) and neutral red uptake (NRU), were used to assess differences in cell-induced cytotoxicity. […] In addition, NRU evaluates the interaction of these drugs with the plasmatic membrane. Cell responses were determined from the MTT [16] and NRU [17] assays, using the two proposed cell lines. Cytotoxicity assays were performed at concentrations equal to 80 and 250 µg/mL. The IC50 value, referring to the half-maximal inhibitory concentration, was determined as a key parameter in cytotoxicity studies (Table 1). It plays a crucial role in evaluating cell viability and assessing cellular responses to various drugs or toxins. For cases where IC50 values were below 80 µg/mL, additional studies at lower concentrations were conducted to accurately determine these values. […] The selectivity index (SI), used as a measurement of action against the tumor cell line in comparison with a normal cell line, was also included.
(§2) • In Vitro Assay Using Human Erythrocytes • - Acquisition and Extraction of the Erythrocytes Human blood samples were obtained from the Banc de Sang i Teixits de Barcelona (Spain) from the Catalan Department of Health. Blood was deposited in tubes with the anticoagulant EDTA-K3. Blood samples were centrifuged at 3000 rpm and 4 °C for 10 min (Megafuge 2.0 R. Heraeus Instruments, Hanau, Germany) to induce sedimentation. Plasma was extracted with a Pasteur pipette. Next, the residual pellet was washed with PBS at pH 7.4. This procedure was repeated three times to remove residual leukocytes and platelets and to concentrate the erythrocytes. Following the last wash, the erythrocyte suspension was diluted (1:1) in PBS at pH 7.4 to obtain a suitable erythrocyte suspension (cell density of 8 × 10^9 cell/mL). • - Hemolysis Assay The hemolysis assay determined the capability of different compounds to induce the hemolysis of the erythrocyte membrane. Stock solutions of each compound at 1 mg/mL in PBS at pH 7.4 were prepared. Different volumes (10–80 μL) were placed in polystyrene tubes, and an aliquot of 25 µL of the erythrocyte suspensions was added to each tube. The final volume was 1 mL. The tubes were incubated at room temperature under rotatory conditions. Then, the tubes were centrifuged at 10,000 rpm for 5 min. The supernatants’ absorbance at 540 nm (Shimadzu UV-160A, Shimadzu, Duisburg, Germany) was compared with that of the positive (erythrocytes hemolyzed with distilled water) and negative (erythrocyte suspension in PBS at pH 7.4) controls. The degree of hemolysis was determined using the following equation: Hemolysis (%) = 100 × (Abs − Abs0)/(Abs100 − Abs0) where Abs, Abs0, and Abs100 are the absorbance of the test samples, of the suspension treated with isotonic phosphate–buffered saline (PBS), and of the suspension of complete hemolysis treated with distilled water, respectively. • In Vitro Essay Using Cell Cultures The murine Swiss albino fibroblasts (3T3) and the squamous cell carcinoma (A431) cell lines were obtained from Celltec UB. Cells were grown in DMEM medium (4.5 g/L glucose) supplemented with 10% (v/v) FBS, 2 mM L-glutamine, 100 U/mL penicillin, and 100 µg/mL streptomycin at 37 °C with 5% CO2. Cells were routinely cultured in 75 cm^2 culture flasks and were trypsinized using trypsin–EDTA when the cells reached approximately 80% confluence. The trypan blue assay, which allows for the direct identification and enumeration of the live (unstained) and dead (blue) cells in the cell population, was used to evaluate the viability of the cells in the cell suspension obtained. • - Cell Viability Assays Cell lines of 3T3 (1 × 10^5 cells/mL) and A431 (5 × 10^4 cells/mL) were grown at defined densities in the 60 central wells of a 96-well plate. The cells were incubated for 24 h in 5% CO2 at 37 °C. […]

[2] = system: A431 cell line (squamous cell carcinoma); assay: Cell viability, MTT assay, A431; type: cell-based
Procedure: as §1, §2

## CC(C)(C)N1C(=O)C(Cl)(Cl)C1c1ccccc1 (stereo not drawn) [Compound 1]
[1]
  IC50 (MTT) 3T3: 210.42 ± 2.40 µg/mL (≈ 773 µM)
[1]; Mus musculus, 24 h
  IC50: 210 µg/mL (≈ 772 µM)
[2]; 24 h incubation, MTT endpoint, A431
  IC50 (MTT) A431: 71.65 ± 1.23 µg/mL (≈ 263 µM)
[2]; Homo sapiens, A-431, 24 h, 24 h incubation, MTT endpoint, A431, read-out: IC50 (MTT) A431
  IC50: 71 µg/mL (≈ 261 µM)
[2]; SI = IC50 (3T3)/IC50 (A431), MTT
  SI (MTT), selectivity index: 2.94
[2]; lower IC50 for A431 than 3T3
  selective cytotoxicity, A431 in comparison with 3T3 cells: some selective cytotoxicity
